Experimental data as given in article PMC5656594 (Scientific Reports, 2017).
“And” between values parts separate entries of the source, which are not always exact repeats. Equal entries are not always repeated.

What was measured:
[1] = DTG-Mg2+ interaction, titration of DTG fluorescence emission enhancement as a function of [Mg2+]; format: physicochemical; settings: DTG 1 μM, λex 345 nm, buffer A, hyperbolic titration curve; read-out: Kd of the DTG-Mg^2+ interaction
Excerpt: Figure 1 Fluorescence properties of INSTIs in solution and influence of divalent cations. […] Corresponding excitation and emission spectra are shown in Supplementary Fig. S1. Excitation and emission slits: Δλex = Δλem = 5 nm (PMT = 750 V). The fluorescence enhancement factor corresponds to the drug fluorescence emission intensity for a given Mg^2+ concentration normalized by the intensity in the absence of Mg^2+. […] The emission intensity was reported as a function of [Mg^2+] (inset). […] The bar graphs in panels A and D show mean ± SD values from three independent experiments. […] Only [Mg2+] and λex: 345 nm appear in the panel, so the substance is left empty.
Furthermore, both drugs display a Mg^2+ dependence of fluorescence intensity, however with some differences. A slight increase of EVG fluorescence intensity was observed upon addition of Mg^2+ (a 3-fold increase for the two excitation modes from 0 to 10 mM Mg^2+; Fig. 1B). […] This Mg^2+-dependent enhancement is related to an increase of the fluorescence quantum yield since no Mg^2+-dependent change in the absorption spectrum was observed (Supplementary Fig. S2A).
Fluorescence excitation and emission spectra of INSTIs were recorded on a Eclipse (Varian) spectrofluorimeter equipped with two polarizers for anisotropy measurements and a thermostated cell holder, using 80 µl solutions placed in micro cells (Hellma). […]

[2] = molecular target: T1, PFV IN complexed with various DNA sequences (Human spumaretrovirus, UniProt P14350); experiment: DTG binding to IN complexed with various DNA sequences, fluorescence intensity procedure; set-up: species or system prototype foamy virus (PFV); settings: for DTG-binding (%) Fluorescence intensity procedure: normalized by DNA#1, [IN]=[DNA]=1.8 μM, [DTG]=0.3 μM, 1 mM Mg2+
T1 construct: The full-length wt IN^PFV, the three single mutants of the catalytic triad; His; made in house; host or cells: E. coli BL21-CodonPlus (DE3)-RIPL
Description: All experiments were performed in the presence of 1 mM Mg^2+ (see Supplementary Fig. S4 for [Mg^2+] = 10 mM). λex = 345 nm and PMT = 980 V (Δλex = Δλem = 5 nm). […] Contributions of Raman and Rayleigh scattering were eliminated in the inset spectrum: (viii) = (iv)–(vii) where (vii) represents the proper spectrum of Mg^2+-DTG in the context of the binary IN-DNA complex. […] [Mg^2+] = 1 mM. Inset: fluorescence intensity (375–385 nm) as a function of (IN + DNA). The arrows indicate the intensity level after addition of 500 mM NaCl. Emission spectra are representative of 3 independent experiments for each condition of (IN + DNA). […] (E) Measurement of the binary IN-DNA complex formation. The formation of binary complexes was performed by monitoring the fluorescence anisotropy (r) of DNA (Fl-PFV^CAAT) under similar experimental conditions of the DTG-binding assay (panels C-D). Top, varying stoichiometric concentrations of IN and DNA were mixed and the r parameter was monitored. A constant concentration of Fl-DNA (0.3 μM) was maintained throughout the titration. […] Bottom, corresponding percentages of binary complexes as a function of (IN + DNA): % = (r–r0)/(rmax–r0)x100 where r0 and rmax correspond to anisotropy values of free DNA and IN-bound DNA, respectively. (F) Linear relationship between the percentages of ternary and binary complexes. […]
Fluorescence excitation and emission spectra of INSTIs were recorded on a Eclipse (Varian) spectrofluorimeter equipped with two polarizers for anisotropy measurements and a thermostated cell holder, using 80 µl solutions placed in micro cells (Hellma). Drug, IN and DNA concentrations, excitation/emission slit settings as well as the photomultiplier tube (PMT) voltage are specified in figure legends. The intensity value was corrected from the inner filter effect. The steady-state fluorescence anisotropy was calculated using: r = (IVV–G x IVH)/(IVV + 2GxIVH) where IVV and IVH correspond to vertical and horizontal components, respectively, when the sample is excited with vertically polarized light. G represents the correction factor for the difference in the monochromator transmission between // and ⊥ polarized components: G = IHV/IHH. All experiments were performed at 25 °C in buffer A: 20 mM Tris pH 7.2, 50 mM NaCl, 1 mM DTT and 10% (v/v) DMSO.

[3] = molecular target: T2, IN^PFV-DNA complexes (DNA#1, DNA#6, DNA#7) (Human spumaretrovirus, UniProt P14350); experiment: Inhibition of ST activity by DTG using DNA#1, DNA#6 or DNA#7 substrates; format: biochemical, prototype foamy virus (PFV); settings: 100 nM DTG, 300 nM IN
T2 construct: The full-length wt IN^PFV, the three single mutants of the catalytic triad; His; made in house; host or cells: E. coli BL21-CodonPlus (DE3)-RIPL
Excerpt: The results in Table 1 cannot discriminate between a direct sequence effect on DTG-binding from an indirect effect via a possible defect in the IN-DNA interaction. The binding of IN to various DNA sequences (DNA#1 #8 #9 and #13) was similar, as measured by fluorescence anisotropy using fluorescein-labeled DNAs (Supplementary Fig. S5A). […] The X-ray structure of the IN^PFV-DNA complex highlights specific contacts (about 9) between amino acids and the bases of the two strands (i.e. reactive and non-transferred DNA strands), up to the 10th position from the reactive strand 3′-end[26]. In particular, there is a specific contact involving a guanine of the non-transferred strand at pos. 10 and the N69 residue. […] To note, based on X-ray structures of ternary RAL/or DTG-IN-DNA complexes[26],[29] in which the INSTI has direct contacts with several bases at pos.
Figure S5. Comparison of the binary INPFV-DNA complex formation using various DNA sequences. (A) The binding of INPFV to various DNA sequences was studied by steady-state […]
concentrations of IN and DNA were mixed in the presence of 1mM Mg2+ and the r parameter was monitored. A constant concentration of Fl-DNA (0.3 µM) was maintained throughout the titration. The percentage of binary complexes as a function of (IN+DNA) was calculated using: %=(r–r0)/(rmax–r0) x100 where r0 and rmax correspond to anisotropy values of free DNA and IN-bound DNA, respectively.
(B) ST activity of IN (200 or
300 nM) after 4h incubation at 37°C using radiolabeled DNA#1, #6 or #7. Results are expressed as percentage of the activity corresponding to: DNA#1 + 300 nM IN. (C) Inhibition of the ST activity by […]
IN concentration was 300 nM. For each substrate,
The bar graphs in panels B-
(also on this page, place not known: PFV-DNA steady -state IN Strand transfer activity (% of ST with and 300 nM IN) strand transfer (% of untreated) Binary IN-DNA complexes (%) DNA#1)

C[C@@H]1CCO[C@H]2Cn3cc(C(=O)NCc4ccc(F)cc4F)c(=O)c(O)c3C(=O)N12 [DTG, dolutegravir]
Kd [1]: ~1200 µM and 1000 to 2000 µM
DTG-binding (%) Fluorescence intensity procedure ([2]; DNA#1 (cognate)): 100%
DTG-binding (%) Fluorescence intensity procedure ([2]; DNA#2): 83 ± 5%
DTG-binding (%) Fluorescence intensity procedure ([2]; DNA#3): 89 ± 6%
DTG-binding (%) Fluorescence intensity procedure ([2]; DNA#4): 84 ± 4%
DTG-binding (%) Fluorescence intensity procedure ([2]; DNA#5): 101 ± 5%
DTG-binding (%) Fluorescence intensity procedure ([2]; DNA#6): 76 ± 5%
DTG-binding (%) Fluorescence intensity procedure ([2]; DNA#7): 20 ± 3%
DTG-binding (%) Fluorescence intensity procedure ([2]; DNA#8): 7 ± 2%
DTG-binding (%) Fluorescence intensity procedure ([2]; DNA#9 (random sequence)): 9 ± 2%
DTG-binding (%) Fluorescence intensity procedure ([2]; DNA#10): 23 ± 3%
DTG-binding (%) Fluorescence intensity procedure ([2]; DNA#11): 24 ± 2%
DTG binding activity, % of the binding activity obtained with DNA#1 ([2]; DNA#12 (CAAT-3′→CAGT-3′), both procedures (text summary of Table 1)): 72–77%
DTG-binding (%) Fluorescence intensity procedure ([2]; DNA#12): 72 ± 6%
DTG-binding (%) Fluorescence intensity procedure ([2]; DNA#13 (processed DNA product)): 66 ± 4%
DTG binding activity, % of the binding activity obtained with DNA#1 ([2]; IN in complex with DNA#2→6 (text summary of Table 1)): > 76%
ST inhibition by DTG ([3]; IN-DNA#1 complexes): remained DTG-sensitive
ST inhibition by DTG ([3]; IN-DNA#6 complexes): remained DTG-sensitive
ST inhibition by DTG ([3]; IN-DNA#7 complexes): absence of ST inhibition
